Assay results: US8273881B2, “Phenazine compounds and use thereof in autoimmune and inflammatory diseases” (JJ Pharma, Inc., priority 2007, dated 2012)

How the values were obtained:
Type in all cases: in vivo, DBA/1 LacJ mice
[1] = test system: Type II collagen-induced arthritis (CIA) in mice; experiment: Collagen-induced arthritis (CIA) mouse model, clinical assessment (involved paws, arthritis score); conditions: for arthritis score vs saline control treated mice (FIG. 2), overall statement: CIA mice, route not specified; for Day post the start of therapy from which a significant reduction (p<0.02) in arthritis score was achieved: each agent at its regimen, Formula III via i.p.
Description: Type II collagen-induced arthritis (CIA) in mice is an accepted experimental model of arthritis with a number of pathological, immunological and genetic features in common with rheumatoid arthritis. This disease is induced by immunization of susceptible strains of mice with type II collagen, the major component of joint cartilage. A progressive, inflammatory arthritis develops in the majority of immunized animals, which is characterized clinically by erythema and edema, with affected paw width increases of typically 100%. A clinical scoring index has been developed to assess disease progression to joint distortion and spondylitis. […] Immunological laboratory findings include high antibody levels to type II collagen and hypergammaglobulinemia.
This study was designed to evaluate the anti-inflammatory and anti-arthritic activity of compound of Formula III using the CIA model by observing changes in immune parameters due to treatment. The animals were administered oral corticosteroid, Enbrel, an injectable TNF inhibitor, and compound of Formula III using both oral and parenteral delivery. Seventy-five DBA/1 LacJ mice 8-10 weeks of age were obtained from Jackson Labs and quarantined in our facility for 10 days prior to experimentation. All mice weighed >16 grams at the start of the experiment. Mice were pre-bled by retro-orbital puncture, and injected with 100 μg Bovine type II collagen in Freund's complete adjuvant (FCA) intradermally at the base of the tail. Mice were monitored by daily examination for the onset of disease. Mice that developed CIA between 20 days post immunization and 42 days post immunization were assigned to one of five treatment groups on a rotational basis (to normalize onset date), and ten mice were assigned to each group. For administration, compound of Formula III was solubilized in sterile saline. To facilitate drugs delivered by oral administration, carboxymethylcellulose was added to a final concentration of 4% in all gavage solutions. Compounds were administered according to the following schedule: • Group 1. 100 μl sterile saline vehicle injected intraperitoneally (i.p.)×3/week. • Group 2. 100 μl sterile saline containing compound of Formula III at 40 mg/kg injected i.p.×3/week. • Group 3. 100 μl sterile saline containing 100 μg Enbrel injected i.p.×3/week. • Group 4. 100 μl sterile saline containing compound of Formula III at 40 mg/kg gavaged×5/week.
Group 5. 100 μl sterile saline containing prednisolone 10 mg/kg gavaged×5/week.
Mice were weighed weekly, and overall health status noted. Arthritiic animals were clinically assessed by visual inspection five times per week, and paw swelling quantified by caliper measurements made three times per week, until seven weeks after the initial onset of arthritis. All animals were assessed individually from the time of disease onset, and the appropriate findings were entered into clinical report forms.

[2] = test system: anti-type II collagen antibody; conditions: after seven weeks of treatment; for terminal anti-CII levels compared with control mice: p<0.01, prednisolone gavage, Formula III i.p.; for terminal anti-CII levels compared with titers at disease onset: prednisolone 10 mg/kg gavage, Formula III 40 mg/kg i.p.
Procedure: (§1) All mice were pre-bled prior to the start of the trial, subsequently at onset of arthritis and at the completion of the trial. Sera were separated and stored at −80° C. ELISA assays were performed to determine anti-type II collagen antibody levels and total immunoglobulin levels.
ELISA plates (Nunc-Immuno plates, Denmark) were coated with 100 μl of coating buffer (0.4M phosphate buffer ph7.6) containing 5 μg of type II collagen, at 4° C. overnight. Plates were washed 3 times with PBS containing 0.05% Tween 20 (Sigma, St. Louis, Mo.) and non specific binding was blocked by PBS containing 5% non fat milk overnight at 4° C. Mouse sera diluted to 1/100 in 5% milk/PBS was added to each well and incubated overnight at 4° C. Subsequently, the plates were washed six times in PBS containing 0.05% Tween-20 and incubated with alkaline phosphatase conjugated goat anti-mouse Ig (Southern Biotechnology Associates, Birmingham, Ala.) at 37° C. for 1 hour. Plates were washed 6 times again and developed for 40 minutes in the dark, using p-nitrophenyl phosphate (Sigma, St. Louis, Mo.) as a chromatogen substrate. The resulting optical density was measured at 405 nm by using a UV max spectrophotometer (Molecular Devices, CA). Negative pre-bleed control sera and a standard mouse anti-CII antiserum were titered on each plate to ensure uniformity of the assay. Antibody binding was expressed as OD405 units-blank.

total serum Ig = experiment: ELISA of total serum immunoglobulin levels in CIA mice; conditions: prednisolone gavage; Formula III i.p.; vs control at disease onset or conclusion of trial
Procedure: as §1
Serum Ig levels was assessed using an ELISA assay. Dynatech Immulon I 96 well ELISA plates were coated with a 1/250 dilution of rabbit anti-mouse IgG (Axell) in PBS overnight at 4° C. Plates were washed ×3 with PBS containing 0.05% Tween, and blocked by the addition of 5% BSA in PBS. Serum samples diluted 1/400 in PBS/BSA was dispensed in triplicate, and a reference curve constructed by a doubling dilution titer of mouse Ig reference serum (Miles) from 1/500 to 1/256,000. The plate was incubated overnight at room temperature, and washed ×3 with PBS/Tween. One hundred μl of goat anti-IgG conjugated with alkaline phosphatase (Fisher-Biotek) (1:500 dilution in Milk/PBS/Tween) was added, and the incubation continued for 1 hour at 37° C. After washing×3 with PBS/Tween, 100 μl of paranitrophenyl phosphate solution (PNPP tablets, Sigma) in diethylolamine buffer was added to each well, and the reaction allowed to proceed for 20 minutes in the dark. The plate was read at 405 nm using a Photospectrometer (Molecular Devices), and the data analyzed using the SOFTmax analytical software package. […]

lymph node cells = experiment: Lymph node cell mitogen and antigen proliferative responses (MTT) from treated CIA mice; conditions: lymphocytes from mice treated 40 mg/kg i.p.; p<0.05
Procedure: Spleen and lymph nodes were removed at sacrifice, and mitogen responses to Con A and LPS, and antigen proliferative responses to type II collagen were determined using standard techniques. Lymph nodes and spleens were harvested and 1 ml of cell suspension (2.5×10^6/ml) cultured in 12-well tissue culture plates (Costar, Corning, N.Y.) with various stimuli in complete RPMI-1640 medium. Cells were incubated for 3 days at 37° C. in a 5% CO2 atmosphere in the presence of mitogen or antigen. 20 µl of MTT (a mitochondrial enzyme substrate) solution (5 mg/ml; Sigma, St Louis, Mo.) was added per well. After 6 hours, the culture supernatant was discarded, and 200 µl of 10% SDS solution added to each well. After incubation at 37° C. overnight, the optical density at 590 nm was read using a microplate photospectrometer (Molecular Devices, CA). The mean and OD values, which provide a measure of cell proliferation, were recorded for each cell sample with respect to antigen stimulation. Antigen specific responses were expressed as (OD590 [Stimulated Culture]−OD590 [Spontaneous proliferation culture])/OD590 [Spontaneous proliferation culture].

Compound: COc1cccc2c1[n+]([O-])c1cccc(O)c1[n+]2[O-] [compound of Formula III]
- number of involved paws vs control mice ([1]; 40 mg/kg i.p. ×3/week or gavaged ×5/week, irrespective of the route of administration): did not significantly influence the number of involved paws
- reduction in arthritis score vs saline control ([1]; 40 mg/kg i.p. ×3/week, p<0.02 from Day 23, p<0.007 at Day 24, sustained until end of trial): significant reduction
- effect upon arthritis score vs saline control ([1]; 40 mg/kg oral gavage ×5/week): did not exert a statistically significant effect
- arthritis score vs saline control treated mice (FIG. 2), overall statement [1]: marked effect upon the arthritis score
- Day post the start of therapy from which a significant reduction (p<0.02) in arthritis score was achieved [1]: 23 days
- terminal anti-CII levels compared with control mice [2]: significant reduction
- terminal anti-CII levels compared with titers at disease onset [2]: maintenance of titers equivalent to the levels at onset
- total serum Ig levels at the terminal bleed vs control mice (total serum Ig): this reduction was not significantly different
- lymph node cell response to LPS (lymph node cells): significant reduction

Compound: C[C@]12C=CC(=O)C=C1CC[C@@H]1[C@@H]2[C@@H](O)C[C@@]2(C)[C@H]1CC[C@]2(O)C(=O)CO [prednisolone]
- arthritis score vs saline control treated mice (FIG. 2), overall statement [1]: significantly reduced the arthritis score
- Day post the start of therapy from which a significant reduction (p<0.02) in arthritis score was achieved [1]: 12 days
- number of involved (arthritic) paws vs control mice ([1]; prednisolone 10 mg/kg gavaged ×5/week, from Day 16 after arthritis onset throughout the study, p<0.002): significantly lower number of arthritic paws
- reduction in arthritis score vs saline control ([1]; prednisolone 10 mg/kg gavaged ×5/week, p<0.02 from Day 12, p<0.001 at day 17, sustained for remainder of trial): significant reduction
- terminal anti-CII levels compared with control mice [2]: significant reduction
- terminal anti-CII levels compared with titers at disease onset [2]: minor decrease
- total serum Ig levels at the terminal bleed vs control mice (total serum Ig): this reduction was not significantly different

Compound: Enbrel
- number of involved (arthritic) paws vs control mice ([1]; 100 μg Enbrel i.p. ×3/week, Day 25 through Day 28, p<0.05): significantly lower number of arthritic paws
- reduction in arthritis score vs saline control ([1]; 100 μg Enbrel i.p. ×3/week, p<0.02 from Day 12, not sustained until 23 days of therapy): significant reduction
- arthritis score vs saline control treated mice (FIG. 2), overall statement [1]: significantly reduced the arthritis score
- Day post the start of therapy from which a significant reduction (p<0.02) in arthritis score was achieved [1]: 12 days
